pIC50: −log10 of the molar value. In brackets after ≈: the same amount, converted by molar mass. Activity calls are given as the source filed them.
Tests used:
[1] = system: Mycobacterium tuberculosis; experiment: Antimycobacterial activity against Mycobacterium tuberculosis H37Rv assessed as growth inhibition at 1 uM after 6 days by MTT colorimetric microassay; type: functional; details: for inhibition of growth at 1 µM: 144 h, read-out: GI
[2] = system: Mycobacterium tuberculosis; experiment: Antimycobacterial activity against Mycobacterium tuberculosis H37Rv assessed as growth inhibition at 0.1 uM after 6 days by MTT colorimetric microassay; type: functional, organism-based
[3] = system: Mycobacterium tuberculosis; experiment: Antimycobacterial activity against Mycobacterium tuberculosis H37Rv assessed as growth inhibition at 10 uM after 6 days by MTT colorimetric microassay; type: functional; details: 144 h, read-out: GI
[4] = system: Mycobacterium tuberculosis; experiment: Antimycobacterial activity against Mycobacterium tuberculosis H37Rv after 6 days by MTT colorimetric microassay; type: functional, organism-based; details: 144 h
[5] = system: Enterococcus hirae; experiment: Antimicrobial activity against Enterococcus hirae CIP 5855 after 18 to 24 hrs by broth microdilution method; type: functional
[6] = system: Pseudomonas aeruginosa; experiment: Antimicrobial activity against Pseudomonas aeruginosa CIP 82.118 after 18 to 24 hrs by broth microdilution method; type: functional
[7] = system: Escherichia coli; experiment: Antimicrobial activity against Escherichia coli CIP 53126 after 18 to 24 hrs by broth microdilution method; type: functional
[8] = system: Staphylococcus aureus; experiment: Antimicrobial activity against Staphylococcus aureus CIP 4.83 after 18 to 24 hrs by broth microdilution method; type: functional
[9] = Antiproliferative activity against human U373MG cells after 120 hrs by MTT asasy; type: functional, cell-based, U-373MG ATCC; details: U373 MG
[10] = system: Staphylococcus aureus; experiment: Antimicrobial activity against multidrug-resistant Staphylococcus aureus isolate 2 after 18 to 24 hrs by broth microdilution method; type: functional
[11] = system: Staphylococcus aureus; experiment: Antimicrobial activity against multidrug-resistant Staphylococcus aureus isolate 1 after 18 to 24 hrs by broth microdilution method; type: functional
[12] = system: Staphylococcus aureus; experiment: Antimicrobial activity against methicillin-resistant Staphylococcus aureus ATCC 33591 after 18 to 24 hrs by broth microdilution method; type: functional
[13] = system: Staphylococcus aureus; experiment: Antimicrobial activity against methicillin-resistant Staphylococcus aureus ATCC 33592 after 18 to 24 hrs by broth microdilution method; type: functional
[14] = system: Staphylococcus aureus; experiment: Ratio of ciprofloxacin MIC to compound MIC for multidrug-resistant Staphylococcus aureus isolate 1; type: functional
[15] = system: Staphylococcus aureus; experiment: Ratio of ciprofloxacin MIC to compound MIC for multidrug-resistant Staphylococcus aureus isolate 2; type: functional
[16] = system: MCF7; experiment: Antiproliferative activity against human MCF7 cells after 120 hrs by MTT asasy; type: functional, cell-based; details: MCF7, 120 h

Structure (SMILES) | growth inhibition (GI) [2] | inhibition of growth at 10 µM [3] | pIC50 [4] | MIC [4] | MBC [5] | MIC [5] | MBC [6] | MIC [6] | inhibition of growth at 1 µM [1] | MBC [7] | MIC [7] | MBC [8] | MIC [8] | pIC50 [9] | further results
CCCCCCCCCCCCCCCC(=O)OCOC(=O)c1cn2c3c(c(N4CCN(C)CC4)c(F)cc3c1=O)OC[C@@H]2C | inactive | – | – | – | – | – | – | – | – | – | – | – | – | – | growth inhibition (GI) [1]: inactive
CCCCCCCCCCCCCCCNC(=O)c1cn2c3c(c(N4CCN(C)CC4)c(F)cc3c1=O)OC[C@@H]2C | inactive | > 95% | 5.19 | 10 µM (≈ 5.71 µg/mL) | 7.8 µM (≈ 4.45 µg/mL) | 7.8 µM (≈ 4.45 µg/mL) | 250 µM (≈ 143 µg/mL) | 62.5 µM (≈ 35.7 µg/mL) | 5% | 500 µM (≈ 285 µg/mL) | 125 µM (≈ 71.3 µg/mL) | 15.6 µM (≈ 8.9 µg/mL) | 15.6 µM (≈ 8.9 µg/mL) | – | –
CCCCCCCCCC(=O)N1CCN(c2cc3c(cc2F)c(=O)c(C(=O)O)cn3C2CC2)CC1 | inactive | > 95% | – | – | 15.6 µM (≈ 7.58 µg/mL) | 15.6 µM (≈ 7.58 µg/mL) | 250 µM (≈ 121 µg/mL) | 125 µM (≈ 60.7 µg/mL) | 20% | 500 µM (≈ 243 µg/mL) | 125 µM (≈ 60.7 µg/mL) | 62.5 µM (≈ 30.4 µg/mL) | 7.8 µM (≈ 3.79 µg/mL) | 5.30 | –
CCCCCCCCCCCC(=O)N1CCN(c2cc3c(cc2F)c(=O)c(C(=O)O)cn3C2CC2)CC1 | inactive | > 95% | – | – | 7.8 µM (≈ 4.01 µg/mL) | 7.8 µM (≈ 4.01 µg/mL) | 250 µM (≈ 128 µg/mL) | 62.5 µM (≈ 32.1 µg/mL) | 20% | 7.8 µM (≈ 4.01 µg/mL) | 7.8 µM (≈ 4.01 µg/mL) | 7.8 µM (≈ 4.01 µg/mL) | 3.9 µM (≈ 2 µg/mL) | – | –
CCCC(=O)OCC(=O)N1CCN(c2cc3c(cc2F)c(=O)c(C(=O)O)cn3C2CC2)CC1 | inactive | – | – | – | ≤ 0.97 µM | ≤ 0.97 µM | 250 µM (≈ 115 µg/mL) | 62.5 µM (≈ 28.7 µg/mL) | – | 31.2 µM (≈ 14.3 µg/mL) | 31.2 µM (≈ 14.3 µg/mL) | ≤ 0.48 µM | ≤ 0.24 µM | – | MBC [10]: 15.6 µM (≈ 7.17 µg/mL); MIC [10]: 15.6 µM (≈ 7.17 µg/mL); MBC [11]: 62.5 µM (≈ 28.7 µg/mL); MIC [11]: 15.6 µM (≈ 7.17 µg/mL); MBC [12]: 0.97 µM (≈ 0.446 µg/mL); MIC [12]: 0.48 µM (≈ 0.221 µg/mL); MBC [13]: 0.12 µM (≈ 0.0551 µg/mL); MIC [13]: 0.06 µM (≈ 0.0276 µg/mL); Ratio [14]: 2; Ratio [15]: 2
CCCCCCCCCCNC(=O)c1cn2c3c(c(N4CCN(C)CC4)c(F)cc3c1=O)OC[C@@H]2C | inactive | > 95% | 5.24 | 10 µM (≈ 5.01 µg/mL) | 15.6 µM (≈ 7.81 µg/mL) | 7.8 µM (≈ 3.91 µg/mL) | 250 µM (≈ 125 µg/mL) | 62.5 µM (≈ 31.3 µg/mL) | 5% | 500 µM (≈ 250 µg/mL) | 125 µM (≈ 62.6 µg/mL) | 7.8 µM (≈ 3.91 µg/mL) | 7.8 µM (≈ 3.91 µg/mL) | – | –
O=C(CCCCCCCCCCCCC(=O)OCN1CCN(c2cc3c(cc2F)c(=O)c(C(=O)O)cn3C2CC2)CC1)OCN1CCN(c2cc3c(cc2F)c(=O)c(C(=O)O)cn3C2CC2)CC1 | inactive | 87% | – | – | 15.6 µM (≈ 14.7 µg/mL) | 15.6 µM (≈ 14.7 µg/mL) | 125 µM (≈ 118 µg/mL) | 62.5 µM (≈ 59.1 µg/mL) | – | 62.5 µM (≈ 59.1 µg/mL) | 31.2 µM (≈ 29.5 µg/mL) | ≤ 0.97 µM | ≤ 0.97 µM | 5.52 | MBC [10]: 62.5 µM (≈ 59.1 µg/mL); MIC [10]: 31.2 µM (≈ 29.5 µg/mL); MBC [11]: 250 µM (≈ 236 µg/mL); MIC [11]: 62.5 µM (≈ 59.1 µg/mL); pIC50 [16]: 5.05; MBC [12]: 3.9 µM (≈ 3.69 µg/mL); MIC [12]: 0.97 µM (≈ 0.917 µg/mL); MBC [13]: 0.48 µM (≈ 0.454 µg/mL)
CCCCCCCCCCCC(=O)OCC(=O)N1CCN(c2cc3c(cc2F)c(=O)c(C(=O)O)cn3C2CC2)CC1 | inactive | > 95% | – | – | 7.8 µM (≈ 4.46 µg/mL) | 7.8 µM (≈ 4.46 µg/mL) | 250 µM (≈ 143 µg/mL) | 62.5 µM (≈ 35.7 µg/mL) | – | 250 µM (≈ 143 µg/mL) | 125 µM (≈ 71.5 µg/mL) | ≤ 0.97 µM | ≤ 0.97 µM | 4.31 | MBC [10]: 250 µM (≈ 143 µg/mL); MIC [10]: 62.5 µM (≈ 35.7 µg/mL); MBC [11]: 500 µM (≈ 286 µg/mL); MIC [11]: 125 µM (≈ 71.5 µg/mL); MBC [12]: 3.9 µM (≈ 2.23 µg/mL); MIC [12]: 1.9 µM (≈ 1.09 µg/mL); MBC [13]: 0.97 µM (≈ 0.555 µg/mL); MIC [13]: 0.06 µM (≈ 0.0343 µg/mL)
CCCCCCCCCCCC(=O)OCOC(=O)c1cn2c3c(c(N4CCN(C)CC4)c(F)cc3c1=O)OC[C@@H]2C | inactive | > 95% | 5.89 | 2.5 µM (≈ 1.43 µg/mL) | 1.9 µM (≈ 1.09 µg/mL) | 1.9 µM (≈ 1.09 µg/mL) | 3.9 µM (≈ 2.24 µg/mL) | ≤ 0.97 µM | 74% | 3.9 µM (≈ 2.24 µg/mL) | 3.9 µM (≈ 2.24 µg/mL) | ≤ 0.97 µM | ≤ 0.97 µM | 6.70 | –
C[C@H]1COc2c(N3CCN(C)CC3)c(F)cc3c(=O)c(C(=O)NCCCCCCNC(=O)c4cn5c6c(c(N7CCN(C)CC7)c(F)cc6c4=O)OC[C@@H]5C)cn1c23 | inactive | 60% | – | > 10 µM | 125 µM (≈ 100 µg/mL) | 125 µM (≈ 100 µg/mL) | 250 µM (≈ 201 µg/mL) | 62.5 µM (≈ 50.2 µg/mL) | – | 62.5 µM (≈ 50.2 µg/mL) | 62.5 µM (≈ 50.2 µg/mL) | 500 µM (≈ 401 µg/mL) | 125 µM (≈ 100 µg/mL) | – | –
O=C(O)c1cn(C2CC2)c2cc(N3CCN(C(=O)CCCCCCCCCCCCC(=O)N4CCN(c5cc6c(cc5F)c(=O)c(C(=O)O)cn6C5CC5)CC4)CC3)c(F)cc2c1=O | inactive | – | – | – | 500 µM (≈ 443 µg/mL) | 125 µM (≈ 111 µg/mL) | 250 µM (≈ 221 µg/mL) | 62.5 µM (≈ 55.3 µg/mL) | – | 500 µM (≈ 443 µg/mL) | 62.5 µM (≈ 55.3 µg/mL) | 1.9 µM (≈ 1.68 µg/mL) | ≤ 0.12 µM | 5.30 | MBC [10]: 15.6 µM (≈ 13.8 µg/mL); MIC [10]: 7.8 µM (≈ 6.9 µg/mL); MBC [11]: 500 µM (≈ 443 µg/mL); MIC [11]: 7.8 µM (≈ 6.9 µg/mL); pIC50 [16]: 5.30; MBC [12]: 3.9 µM (≈ 3.45 µg/mL); MIC [12]: 0.06 µM (≈ 0.0531 µg/mL); MBC [13]: 0.97 µM (≈ 0.858 µg/mL); MIC [13]: 0.12 µM (≈ 0.106 µg/mL)
CCCCCCCCCCCCCCCCCCCC(=O)OCOC(=O)c1cn2c3c(c(N4CCN(C)CC4)c(F)cc3c1=O)OC[C@@H]2C | inactive | – | – | – | – | – | – | – | – | – | – | – | – | – | growth inhibition (GI) [1]: inactive
CCCC(=O)OCOC(=O)c1cn2c3c(c(N4CCN(C)CC4)c(F)cc3c1=O)OC[C@@H]2C | inactive | > 95% | 5.89 | 2.5 µM (≈ 1.15 µg/mL) | – | – | – | – | 74% | – | – | – | – | – | –
CCCCCCCCNC(=O)c1cn2c3c(c(N4CCN(C)CC4)c(F)cc3c1=O)OC[C@@H]2C | inactive | > 95% | – | – | 31.2 µM (≈ 14.7 µg/mL) | 31.2 µM (≈ 14.7 µg/mL) | 250 µM (≈ 118 µg/mL) | 31.2 µM (≈ 14.7 µg/mL) | – | 500 µM (≈ 236 µg/mL) | 125 µM (≈ 59.1 µg/mL) | 31.2 µM (≈ 14.7 µg/mL) | 31.2 µM (≈ 14.7 µg/mL) | 5.64 | –
CCCCCCCCCCCCCNC(=O)c1cn2c3c(c(N4CCN(C)CC4)c(F)cc3c1=O)OC[C@@H]2C | inactive | > 95% | – | > 10 µM | – | – | – | – | 5% | – | – | – | – | – | –
CCCCCCCC(=O)OCOC(=O)c1cn2c3c(c(N4CCN(C)CC4)c(F)cc3c1=O)OC[C@@H]2C | inactive | > 95% | 5.89 | 2.5 µM (≈ 1.29 µg/mL) | – | – | – | – | 74% | – | – | – | – | – | –

From ChEMBL document CHEMBL1914411, “Synthesis of lipophilic dimeric C-7/C-7-linked ciprofloxacin and C-6/C-6-linked levofloxacin derivatives. Versatile in vitro biological evaluations of monomeric and dimeric fluoroquinolone derivatives as potential antitumor, antibacterial or antimycobacterial agents” (Eur J Med Chem, 2011)
